Active and inactive are the calls of the source. The calls are words filed in the database; no cut-off is given here.
Assays:
[1] = system: HeLa; assay: Effect on NQO1 mRNA expression in human HeLa cells after 4 hrs by RT-PCR method relative to control; format: functional
[2] = system: HeLa; assay: Upregulation of CAT mRNA expression in human HeLa cells after 4 hrs by RT-PCR method; format: functional, cell-based
[3] = system: HeLa; assay: Induction of nitric oxide production in human HeLa cells after 1 hr by DAF2-DA probe based fluorescence assay; format: functional, cell-based
[4] = system: HeLa; assay: Geno-toxicity in human HeLa cells assessed as induction of DNA damage by measuring increase in incomplete excision repair sites at pH 12.1 after 1 hr by comet assay; format: functional, cell-based
[5] = system: HeLa; assay: Effect on NCOA7 mRNA expression in human HeLa cells after 4 hrs by RT-PCR method relative to control; format: functional
[6] = system: HeLa; assay: Geno-toxicity in human HeLa cells assessed as induction of DNA damage by measuring increase in single strand breaks after 1 hr by comet assay; format: functional, cell-based
[7] = system: HeLa; assay: Induction of DNA damage in human HeLa cells assessed as increase in DNA lessions at 4 degreeC incubation for 120 mins by alkaline comet assay relative to control; format: functional, cell-based
[8] = system: HeLa; assay: Effect on SOD1 mRNA expression in human HeLa cells after 4 hrs by RT-PCR method relative to control; format: functional
[9] = system: HeLa; assay: Induction of DNA damage in human HeLa cells incubated for 1 hr followed by repair incubation for 120 mins by alkaline comet assay; format: functional, cell-based
[10] = system: HeLa; assay: Effect on TXN mRNA expression in human HeLa cells after 4 hrs by RT-PCR method relative to control; format: functional
[11] = system: HeLa; assay: Effect on GPX4 mRNA expression in human HeLa cells after 4 hrs by RT-PCR method relative to control; format: functional
[12] = system: HeLa; assay: Effect on NOX4 mRNA expression in human HeLa cells after 4 hrs by RT-PCR method relative to control; format: functional
[13] = system: HeLa; assay: Upregulation of GPX1 mRNA expression in human HeLa cells after 4 hrs by RT-PCR method; format: functional, cell-based
[14] = system: HeLa; assay: Effect on NOX5 mRNA expression in human HeLa cells after 4 hrs by RT-PCR method relative to control; format: functional
[15] = system: HeLa; assay: Induction of DNA damage in human HeLa cells after 1 hr in presence of antioxidant vitamin E by alkaline comet assay relative to control; format: functional, cell-based
[16] = system: HeLa; assay: Geno-toxicity in human HeLa cells assessed as induction of DNA damage by measuring increase in double stranded DNA breaks at 5.6 to 69 uM after 1 hr by neutral comet assay; format: functional, cell-based
[17] = system: HeLa; assay: Effect on GCLM mRNA expression in human HeLa cells after 4 hrs by RT-PCR method relative to control; format: functional
[18] = system: HeLa; assay: Effect on HMOX mRNA expression in human HeLa cells after 4 hrs by RT-PCR method relative to control; format: functional
[19] = system: Escherichia coli; assay: Induction of Escherichia coli pUC19 DNA damage assessed as decrease in supercoiled covalently closed circular DNA forms after 1 hr by agarose gel electrophoresis
[20] = system: HeLa; assay: Geno-toxicity in human HeLa cells assessed as induction of DNA damage after 1 hr by alkaline comet assay; format: functional, cell-based
[21] = system: HeLa; assay: Induction of ROS production in human HeLa cells after 1 hr by CM-H2DCFDA probe based fluorescence assay; format: functional, cell-based
[22] = system: HeLa; assay: Effect on SOD2 mRNA expression in human HeLa cells after 4 hrs by RT-PCR method relative to control; format: functional
[23] = system: HeLa; assay: Induction of oxidative stress in human HeLa cells assessed as reduction in GSH level after 1 hr by MBCL probe based flow cytometry relative to control; format: functional; design: scale not given: the % may be the effect or the level left
[24] = system: Escherichia coli; assay: Induction of Escherichia coli pUC19 DNA damage assessed as increase in linear DNA forms after 1 hr by agarose gel electrophoresis
[25] = system: HeLa; assay: Induction of oxidative stress in human HeLa cells assessed as reduction in thioredoxin reductase at IC50 after 14 hrs by DTNB/bradford reagent based colorimetric method; format: functional; design: scale not given: the % may be the effect or the level left
[26] = system: HeLa; assay: Induction of DNA damage in human HeLa cells after 1 hr in presence of antioxidant epicatechin by alkaline comet assay relative to control; format: functional, cell-based
[27] = system: Escherichia coli; assay: Induction of Escherichia coli pUC19 DNA damage assessed as increase in open circular DNA forms after 1 hr by agarose gel electrophoresis
[28] = system: HeLa; assay: Induction of DNA damage in human HeLa cells assessed as increase in DNA lessions at 37 degreeC incubation for 120 mins by alkaline comet assay relative to control; format: functional, cell-based
[29] = system: HeLa; assay: Geno-toxicity in human HeLa cells assessed as induction of DNA damage by measuring increase in double stranded DNA breaks at 17 to 137 uM after 1 hr by neutral comet assay; format: functional, cell-based
[30] = system: HeLa; assay: Geno-toxicity in human HeLa cells assessed as induction of DNA damage by measuring increase in double stranded DNA breaks at 69 to 550 uM after 1 hr by neutral comet assay; format: functional, cell-based

| SMILES | fold change (FC) [1] | Activity [2] | Activity [3] | Activity [4] | fold change (FC) [5] | Activity [6] | Activity [7] | fold change (FC) [8] | Activity [9] | fold change (FC) [10] | fold change (FC) [11] | fold change (FC) [12] | Activity [13] | fold change (FC) [14] | Activity [15] | fold change (FC) [17] | fold change (FC) [18] | Activity [19] | Activity [20] | Activity [21] | further results |
| --- | --- | --- | --- | --- | --- | --- | --- | --- | --- | --- | --- | --- | --- | --- | --- | --- | --- | --- | --- | --- | --- |
| CC(=O)OC[C@H]1O[C@@H](S[C@@H]2CC(=O)[C@@H]3OC[C@H]2O3)[C@H](OC(C)=O)[C@@H](OC(C)=O)[C@@H]1OC(C)=O | 1.34 | Active | inactive | Dose-dependent effect | 0.43 | Dose-dependent effect | inactive | 1.18 | inactive | 0.76 | 1.15 | 0.58 | Active | 0.53 | inactive | 2.21 | 20.29 | inactive | Dose-dependent effect | Active | Activity [16]: inactive; fold change (FC) [22]: 1.56; Activity [23]: 20%; Activity [24]: inactive; Activity [25]: 18.3%; Activity [26]: inactive; Activity [27]: inactive; Activity [28]: Active |
| O=C(O)c1ccccc1S[C@@H]1CC(=O)[C@@H]2OC[C@H]1O2 | 1.61 | Active | inactive | Dose-dependent effect | 0.51 | Dose-dependent effect | inactive | 1.12 | inactive | 0.93 | 0.56 | 1.13 | Active | 0.56 | inactive | 1.56 | 3.42 | inactive | Dose-dependent effect | Active | Activity [29]: inactive; fold change (FC) [22]: 1.28; Activity [23]: Active; Activity [24]: inactive; Activity [25]: 7.5%; Activity [26]: inactive; Activity [27]: inactive; Activity [28]: Active |
| CC(=O)OC[C@H]1O[C@@H](S[C@@H]2CC(=O)[C@@H]3OC[C@H]2O3)[C@H](OC(C)=O)[C@@H](OC(C)=O)[C@H]1OC(C)=O | 1.36 | Active | inactive | Dose-dependent effect | 0.37 | Dose-dependent effect | inactive | 1.07 | inactive | 1.07 | 0.75 | 0.74 | Active | 0.68 | inactive | 1.77 | 10.53 | inactive | Dose-dependent effect | Active | Activity [30]: inactive; fold change (FC) [22]: 1.26; Activity [23]: 60%; Activity [24]: inactive; Activity [25]: 9.2%; Activity [26]: inactive; Activity [27]: inactive; Activity [28]: Active |
| O=C1C[C@@H](S[C@@H]2O[C@H](CO)[C@@H](O)[C@H](O)[C@H]2O)[C@H]2CO[C@@H]1O2 | 1.27 | Active | inactive | Dose-dependent effect | 0.35 | Dose-dependent effect | inactive | 1.16 | inactive | 0.94 | 0.56 | 0.68 | Active | 0.34 | inactive | 1.95 | 7.29 | inactive | Dose-dependent effect | Active | Activity [30]: inactive; fold change (FC) [22]: 1.25; Activity [23]: Active; Activity [24]: inactive; Activity [25]: 3.86%; Activity [26]: inactive; Activity [27]: inactive; Activity [28]: Active |

Source: ChEMBL document CHEMBL3997812, “The induction of oxidative stress in cervix carcinoma cells by levoglucosenone derived 4-S-salicyl derivative and (1-4)-S-thio-disaccharides. Part 4” (2017)
